Results on 13 compounds are retold here after patent US10799518B2, “Use of agonists of formyl peptide receptor 2 for treating dermatological diseases” (Allergan, Inc., priority 2013, dated 2020).

What is called EC50 is the concentration needed to bring the measured effect to its halfway point. Low readings indicate higher potency in that assay, high ones lower potency in that assay.

human FPR2 receptor, sequence (P25090 whole entry): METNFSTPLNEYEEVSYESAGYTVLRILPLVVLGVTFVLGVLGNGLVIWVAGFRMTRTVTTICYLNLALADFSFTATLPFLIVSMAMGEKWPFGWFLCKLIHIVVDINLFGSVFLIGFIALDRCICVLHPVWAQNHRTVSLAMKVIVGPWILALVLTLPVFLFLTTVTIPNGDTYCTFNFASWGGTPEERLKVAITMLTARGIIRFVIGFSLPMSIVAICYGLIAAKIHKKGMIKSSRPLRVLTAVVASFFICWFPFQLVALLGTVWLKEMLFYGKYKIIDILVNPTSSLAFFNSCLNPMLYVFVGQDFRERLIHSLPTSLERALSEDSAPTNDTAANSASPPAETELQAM

One test deals with human FPR2 receptor (Homo sapiens (Human), UniProt P25090). The experiment in a line: FLIPR Ca+2 response in HEK-Gα16 cells stably expressing the human FPR2 receptor. Type of test: cell-based. Conditions: Table 4; HEK-Gα16 human FPR2, FLIPR. How it is done:
HEK-Gα16 cells stably expressing the human FPR2 receptor was utilized. Cells were plated into 384-well poly-D-lysine coated plates at a density of 18,000 cells per well one day prior to use. The growth media was DMEM medium supplemented with 10% fetal bovine serum (FBS), 1% antibiotic-antimycotic, 50 μg/ml hygromycin, and 400 μg/ml geneticin. On the day of the experiment, the cells were washed twice with Hank's Balanced Salt Solution supplemented with 20 mM HEPES (HBSS/hepes buffer). The cells were then dye loaded with 2 μM Fluo-4 diluted in the HBSS/Hepes buffer and incubated at 37° C. for 40 minutes. Extracellular dye was removed by washing the cell plates four times prior to placing the plates in the FLIPR (Fluorometric Imaging Plate Reader, Molecular Devices). Ligands were diluted in HBSS/Hepes buffer and prepared in 384-well microplates. Data for Ca^+2 responses were obtained in relative fluorescence units.
As to `O=C(O)[C@@H]1C2CCC([C@@H]1C(=O)Nc1ccc(Br)cc1)C21CC1` (relative stereo) [Compound 14, rel-(2R,3 S)-3-[(4-brornophenyl)carbarnoyl]spiro [bicyclo[2.2.1]heptane-7,1′-cyclopropane]-2-carboxylic acid], a half-maximal effect (EC50) was put at 4 nM. Still for that read-out and setting: for `CSc1ccc(NC(=O)C2C(C(=O)O)C3C=CC2C32CC2)cc1` (stereo not drawn) [Compound 31, 3-{[4-(methylsulfanyl)phenyl]carbamoyl} spiro[bicyclo[2.2.1]heptane-7,1′-cyclopropane]-5-ene-2-carboxylic acid] the value was 14 nM; for `CCOP(=O)(CCNC(=O)[C@H](CC(C)C)NC(=O)Nc1ccc(Br)cc1)OCC` [Compound 119, diethyl (2-{[(2S)-2-{[(4-bromophenyl)carbamoyl]amino}-4-methylpentanoyl]amino}ethyl) phosphonate], 16.1 nM.

The same test, now with this note: Table 4; value in parentheses, given mostly as fraction.
As to `O=C(O)[C@@H]1C2CCC([C@@H]1C(=O)Nc1ccc(Br)cc1)C21CC1` (relative stereo) [Compound 14, rel-(2R,3 S)-3-[(4-brornophenyl)carbarnoyl]spiro [bicyclo[2.2.1]heptane-7,1′-cyclopropane]-2-carboxylic acid], the FPR2 (% eff) is 90%. Consider `CSc1ccc(NC(=O)C2C(C(=O)O)C3C=CC2C32CC2)cc1` (stereo not drawn) [Compound 31, 3-{[4-(methylsulfanyl)phenyl]carbamoyl} spiro[bicyclo[2.2.1]heptane-7,1′-cyclopropane]-5-ene-2-carboxylic acid], for which the FPR2 (% eff) worked out at 96%.

`CC(C)C[C@H](NC(=O)Nc1ccc(Br)cc1)C(=O)N[C@@H](C)C(=O)O` [Compound 90, (2S)-2-{[(2S)-2-{[(4-bromophenyl)carbamoyl]amino}-4-methylpentanoyl]amino} propanoic acid]: the FPR2 (% eff) was found to be 100%. The same measure, in the same setting: for `CC(C)C[C@H](NC(=O)Nc1ccc(Br)cc1)C(=O)NCC(O)CO` (stereo partly drawn) [Compound 95, (2S)-2-{[(4-bromophenyl)carbamoyl]amino}-N-(2,3-dihydroxypropyl)-4-methylpentanamide] the value was 98%; for `CCOP(=O)(O)CNC(=O)[C@H](CC(C)C)NC(=O)Nc1ccc(Br)cc1` [Compound 105, ethyl hydrogen ({[(2S)-2-{[(4-bromophenyl)carbamoyl]amino}-4-methylpentanoyl]amino}methyl)phosphonate], 88%. `CCOP(=O)(O)CNC(=O)[C@@H](NC(=O)Nc1ccc(Br)cc1)[C@@H](C)CC` [Compound 115, ethyl hydrogen ({[(2S,3S)-2-{[(4-bromophenyl)carbamoyl]amino}-3-methylpentanoyl]amino}methyl)phosphonate]: the FPR2 (% eff) was 88%. Consider `CC(C)C[C@H](NC(=O)Nc1ccc(Br)cc1)C(=O)NCc1cc(O)no1` [Compound 116, (2S)-2-{[(4-bromophenyl)carbamoyl]amino}-N-[(3-hydroxy-1,2-oxazol-5 - yl)methyl]-4-methylpentanamide], for which the FPR2 (% eff) worked out at 100%.

`CCC[C@H](NC(=O)Nc1ccc(Br)cc1)C(=O)NCP(=O)(OCC)OCC` [Compound 117, diethyl (1[(2S)-2-1[(4-bromophenyl)carbamoyl]amino}pentanoyl]amino}methyl) phosphonate]: the FPR2 (% eff) worked out at 100%. Take `CCOP(=O)(CNC(=O)[C@H](Cc1ccccc1)NC(=O)Nc1ccc(Br)cc1)OCC` [Compound 118, diethyl ({[(2S)-2-{[(4-bromophenyl)carbamoyl]amino}-3-phenylpropanoyl]amino}methyl)phosphonate]: the FPR2 (% eff) is 93%. With `CCC[C@H](NC(=O)Nc1ccc(Br)cc1)C(=O)NCP(=O)(O)OCC` [Compound 123, ethyl hydrogen ({[(2S)-2-{[(4-bromophenyl)carbamoyl]amino}pentanoyl]amino}methyl) phosphonate], the FPR2 (% eff) stood at 96%. Same read-out and setting: next, `CC(C)C[C@H](NC(=O)Nc1ccc(C(F)(F)F)cc1)C(=O)NCC(=O)O` [Compound 124, {[(2S)-4-methyl-2-({[4-(trifluoromethyl)phenyl]carbamoyl}amino)pentanoyl]amino}acetic acid]: 100%; `CCOP(=O)(O)CNC(=O)[C@H](Cc1ccccc1)NC(=O)Nc1ccc(Br)cc1` [Compound 126, ethyl hydrogen ({[(2S)-2-{[(4-bromophenyl)carbamoyl]amino}-3-phenylpropanoyl]amino}methyl)phosphonate]: 100%.
